Series [1] deals with mouse model with collagen-induced arthritis. Description: Severity of arthritis in mouse model with collagen-induced arthritis. Type of series: in vivo. The method, then: To prepare a mouse model with rheumatoid arthritis, subcutaneous injection (first immunization) was performed on the tail of a group of 8-week-old male ICR normal mice (average weight: 20 g) injected with 50 μg of a mixture obtained by mixing type II collagen with Complete Freund's adjuvant (CFA) and paraffin oil in the same amount. Two weeks later, the same substance was subcutaneously injected into the tail in the same manner to prepare an animal model with rheumatoid arthritis.
In the same manner as in Example 2, the mixture of P1, P2 and P4 peptides (P124) prepared in Example 1 was administered to the skin of mice as an external skin preparation.
In addition, the peptide mixture (P124) was treated as an external skin preparation once a day for 10 consecutive days, the arthritis treatment effect was checked after 5 weeks, and the results were shown in FIG. 5.

Series [2] has as its system CD4+CD25+ cells, CD4+CD25+FoxP3+ cells, IL-17+ cells. Put plainly: Flow cytometry (FACS) of cells isolated from treated arthritis mouse model. More on the design: IL-17: unit not given here. It is filed as in vivo. A general note: Flow cytometry measures light scatter and fluorescence of single cells or particles in a stream.
Series [3] is described as follows: Retention of fluorescently labeled peptide in abdominal cavity (FACS of intraperitoneal macrophages). Type of series: in vivo, mouse. The following applies: for stability in vivo: conclusion from FIG. 9 and FIG. 10. The method, then:
After intraperitoneal injection of the fluorescently labeled peptide P4 into mice, intraperitoneal macrophages were isolated, and the frequency of fluorescently labeled macrophages was analyzed by FACS to measure the retention time of the peptides in the abdominal cavity, which was shown in FIG. 9.
In addition, the P1, P2, and P4 peptides were labeled with each different fluorescence, and the three types were mixed and administered to normal mice.

Series [4] concerns mouse animal model with Behcet's disease (HSV type 1 infected ICR mice). Description: Therapeutic effect on skin ulcers and skin inflammation in mouse animal model with Behcet's disease. It is filed as in vivo. As to conditions: peptides administered respectively; symptoms visually checked; FIG. 1. The method, then:
Male ICR mice (4-5 weeks of age) were infected with HSV type 1 (1×10^6, 20 μL) grown in Vero cells as previously reported (S. Sohn et al., Eur J Dermatol, 8 (1): 21-23, 1998). 10 days after the first virus inoculation, the mice were infected twice by inoculating the virus again and monitored for 32 weeks. Animals were treated according to the guidelines provided by Institutional Animal Care and Use Committee (IACUC) of School of Medicine at Ajou University. The study protocol was approved by IACUC (Approval No.: AMC-2016-0010).
Symptoms include skin ulcers, skin pustule, genital ulcers, erythema, mouth ulcers, ear inflammation, arthritis, red eyes (left and right), decreased visual acuity (left and right), weight loss, and facial swelling. Mouth ulcers, genital ulcers, skin ulcers, and eye symptoms were classified as major symptoms while the other symptoms were mild.
Mice showing one or more major symptoms with one mild symptom were considered as BD mice, the score for each symptom was calculated as 1, and the sum of the scores was used to determine the severity of BD. When symptoms disappeared or the size of the lesion was reduced by 20% or more, it was classified as symptom improved state. The disease severity score for BD was calculated based on the BD Activity Index as described in the BD Activity Form (www.behcet.ws/pdf/BehcetsDiseaseActivityForm.pdf). […]

Where [5] appears, read: FACS frequency, Table 1, in % (unit assumed).
Setting [6] is: intraperitoneal injection, intraperitoneal macrophages, FIG. 9.

Where a SMILES comes first, the peptide text is derived from it.

For the molecule `CN(Cc1cnc2nc(N)nc(N)c2n1)c1ccc(C(=O)N[C@@H](CCC(=O)O)C(=O)O)cc1` [Methotrexate], the “duration of the effect on severity score for arthritis” value in series [1] (FIG. 4, 10 weeks follow-up) was “effect decreased after 7 weeks”. Moreover, in series [1] (external skin preparation, compared to PBS control group, followed 10 weeks, FIG. 4), the “severity score for arthritis” value was “reduction in the severity score for arthritis was also shown”. For the same molecule, the IL-17 in series [2] (FACS frequency, Table 1) is on record as 13.15 ± 1.34. In addition, in series [2] (setting [5]), the “CD4 + CD25+” value was determined as 3.7 ± 1.13 and the “CD4 + CD25 + FoxP3+” value was 1.45 ± 0.49. In series [2] (FACS, Table 1), this molecule yielded an ROR-gammaT of 6.2 ± 0.42.

`CC[C@H](C)[C@H](NC(=O)[C@@H](N)CC(C)C)C(=O)N[C@@H](CS)C(=O)N1CCC[C@H]1C(=O)N[C@@H](CCC(=O)O)C(=O)N[C@@H](CCCCN)C(=O)N[C@@H](Cc1ccc(O)cc1)C(=O)N[C@@H](CS)C(=O)N[C@@H](CC(N)=O)C(=O)N[C@@H](CCCCN)C(=O)N[C@H](C(=O)N[C@@H](Cc1c[nH]cn1)C(=O)N[C@H](C(=O)O)[C@@H](C)O)C(C)C` [P1, LICPEKYCNKVHT] (H-LICPEKYCNKVHT-OH; N-terminus and C-terminus assumed): the stability in vivo result in series [3] is given as “stably maintained”.

Regarding `CC(C)[C@H](NC(=O)[C@H](CCCCN)NC(=O)[C@H](CC(N)=O)NC(=O)[C@H](CS)NC(=O)[C@@H](N)Cc1ccc(O)cc1)C(=O)N[C@@H](Cc1c[nH]cn1)C(=O)N[C@H](C(=O)N[C@@H](CS)C(=O)N[C@@H](CCCNC(=N)N)C(=O)N[C@@H](CC(N)=O)C(=O)NCC(=O)O)[C@@H](C)O` [P2, YCNKVHTCRNG] (H-YCNKVHTCRNG-OH; N-terminus and C-terminus assumed), the stability in vivo result in series [3] is on record as “stably maintained”.

As to `CC[C@H](C)[C@H](NC(=O)[C@H](CC(N)=O)NC(=O)[C@H](CCC(=O)O)NC(=O)CNC(=O)[C@H](CC(N)=O)NC(=O)[C@H](CCCNC(=N)N)NC(=O)[C@H](CS)NC(=O)[C@@H](NC(=O)[C@@H](N)Cc1c[nH]cn1)[C@@H](C)O)C(=O)N[C@@H](CS)C(=O)N[C@@H](Cc1ccccc1)C(=O)O` [P4, HTCRNGENICF] (H-HTCRNGENICF-OH; N-terminus and C-terminus assumed), the stability in vivo entry in series [3] is recorded as “stably maintained”. In addition, in series [3] (setting [6]), the “time at which frequency of cells including the peptide was the highest” value was determined as 24 h and the “time up to which frequency of cells including the peptide was maintained” value was “up to 72 hours”.

In the case of ENICFKRFYEGNLLGKRYPRGCA [P5], in series [4], the “skin ulcers and skin inflammation” value is on record as “alleviated”.
